# Test results reported in BindingDB's records for doi:10.1016/s0960-894x(00)00385-1 (Merck Research Laboratories, 2001).
# Test: Inhibition of aggregation of human gel-filtered platelets measured by light transmittance method at 37 degrees C.
row,SMILES,IC50 [nM]
1,O=C(NC[C@H](NS(=O)(=O)c1ccccc1)C(=O)O)c1ccc(OCCC2CCNCC2)cc1 [2-Benzenesulfonylamino-3-[4-(2-piperidin-4-yl-ethoxy)-benzoylamino]-propionic acid],13
2,"O=C(O)CCNC(=O)CN1CCc2ccc(N3CCNCC3)cc2C1=O [3-[2-(1-Oxo-7-piperazin-1-yl-3,4-dihydro-1H-isoquinolin-2-yl)-acetylamino]-propionic acid]",140
3,"O=C(CN1CCc2ccc(N3CCNCC3)cc2C1=O)NC[C@H](NS(=O)(=O)c1ccccc1)C(=O)O [(S)-2-Benzenesulfonylamino-3-[2-(1-oxo-7-piperazin-1-yl-3,4-dihydro-1H-isoquinolin-2-yl)-acetylamino]-propionic acid]",35
4,"O=C(NC[C@H](NS(=O)(=O)c1ccccc1)C(=O)O)c1ccc2c(c1)C(=O)N(CCC1CCNCC1)C2 [(S)-2-Benzenesulfonylamino-3-{[3-oxo-2-(2-piperidin-4-yl-ethyl)-2,3-dihydro-1H-isoindole-5-carbonyl]-amino}-propionic acid]",8
5,O=C(NC[C@H](NS(=O)(=O)c1ccccc1)C(=O)O)c1cc2cc(OCCC3CCNCC3)ccc2[nH]1 [(S)-2-Benzenesulfonylamino-3-{[5-(2-piperidin-4-yl-ethoxy)-1H-indole-2-carbonyl]-amino}-propionic acid],10
6,"C#C[C@H](CC(=O)O)NC(=O)c1ccc2c(c1)C(=O)N(CCc1ccnc(N)c1)C2 [(S)-3-({2-[2-(2-Amino-pyridin-4-yl)-ethyl]-3-oxo-2,3-dihydro-1H-isoindole-5-carbonyl}-amino)-pent-4-ynoic acid]",27
7,"O=C(O)C[C@H](NC(=O)CN1CCc2ccc(N3CCNCC3)cc2C1=O)c1cccnc1 [(S)-3-[2-(1-Oxo-7-piperazin-1-yl-3,4-dihydro-1H-isoquinolin-2-yl)-acetylamino]-3-pyridin-3-yl-propionic acid]",13
8,"Cc1ccc(S(=O)(=O)N[C@@H](CNC(=O)c2cc3n(n2)CCCN(CCC2CCNCC2)C3=O)C(=O)O)cc1 [(S)-3-{[4-Oxo-5-(2-piperidin-4-yl-ethyl)-5,6,7,8-tetrahydro-4H-1,5,8a-triaza-azulene-2-carbonyl]-amino}-2-(toluene-4-sulfonylamino)-propionic acid]",8
9,C#C[C@H](CC(=O)O)NC(=O)CN1CCc2ccc(N3CCNCC3)cc2C1=O [L-767679],15

# Continued, values first:
row,IC50 [nM],SMILES
1,51,C#CC(CCCN1CCC[C@@H](CCC2CCNCC2)C1=O)CC(=O)O (stereo partly drawn) [3-Ethynyl-6-[(R)-2-oxo-3-(2-piperidin-4-yl-ethyl)-piperidin-1-yl]-hexanoic acid]
2,32,C[C@H](CC(=O)O)NC(=O)CN1CCC[C@@H](CCC2CCNCC2)C1=O [3-{2-[2-Oxo-3-(2-piperidin-4-yl-ethyl)-piperidin-1-yl]-acetylamino}-butyric acid (L-734217)]
3,15,C#CC(CC(=O)O)NC(=O)CN(C(=O)c1cccc(C2CCNCC2)c1)C1CC1 (stereo not drawn) [3-{2-[Cyclopropyl-(3-piperidin-4-yl-benzoyl)-amino]-acetylamino}-pent-4-ynoic acid]
4,65,"CC(CC(=O)O)NC(=O)c1ccc2c(c1)C(=O)N(CCC1CCNCC1)C2 (stereo not drawn) [3-{[3-Oxo-2-(2-piperidin-4-yl-ethyl)-2,3-dihydro-1H-isoindole-5-carbonyl]-amino}-butyric acid]"
5,57,C[C@@H](/C=C/CN1CCC[C@@H](CCC2CCNCC2)C1=O)CC(=O)O [(E)-(R)-3-Methyl-6-[(R)-2-oxo-3-(2-piperidin-4-yl-ethyl)-piperidin-1-yl]-hex-4-enoic acid]
6,11,O=C(CN1CCC[C@@H](CCC2CCNCC2)C1=O)NC[C@H](NS(=O)(=O)c1ccccc1)C(=O)O [(S)-2-Benzenesulfonylamino-3-{2-[(R)-2-oxo-3-(2-piperidin-4-yl-ethyl)-piperidin-1-yl]-acetylamino}-propionic acid]
7,19,C#C[C@H](CC(=O)O)NC(=O)C[C@H]1CCCN(CCc2ccnc(N)c2)C1=O [(S)-3-(2-{(R)-1-[2-(2-Amino-pyridin-4-yl)-ethyl]-2-oxo-piperidin-3-yl}-acetylamino)-pent-4-ynoic acid]
8,28,C#C[C@H](CC(=O)O)NC(=O)CN1CCC[C@@H](CCc2ccnc(N)c2)C1=O [(S)-3-(2-{(R)-3-[2-(2-Amino-pyridin-4-yl)-ethyl]-2-oxo-piperidin-1-yl}-acetylamino)-pent-4-ynoic acid]
9,9,O=C(O)C[C@H](NC(=O)C[C@H]1CCCN(CCC2CCNCC2)C1=O)c1cccnc1 [(S)-3-{2-[(R)-2-Oxo-1-(2-piperidin-4-yl-ethyl)-piperidin-3-yl]-acetylamino}-3-pyridin-3-yl-propionic acid]
10,15,C#C[C@H](CC(=O)O)NC(=O)C[C@H]1CCCN(CCC2CCNCC2)C1=O [(S)-3-{2-[(R)-2-Oxo-1-(2-piperidin-4-yl-ethyl)-piperidin-3-yl]-acetylamino}-pent-4-ynoic acid]
11,10,O=C(O)C[C@H](NC(=O)CN1CCC[C@@H](CCC2CCNCC2)C1=O)c1cccnc1 [(S)-3-{2-[(R)-2-Oxo-3-(2-piperidin-4-yl-ethyl)-piperidin-1-yl]-acetylamino}-3-pyridin-3-yl-propionic acid]
12,13,C#C[C@H](CC(=O)O)NC(=O)CN1CCC[C@@H](CCC2CCNCC2)C1=O [(S)-3-{2-[(R)-2-Oxo-3-(2-piperidin-4-yl-ethyl)-piperidin-1-yl]-acetylamino}-pent-4-ynoic acid]
13,81,"O=C(O)C[C@@H](CO)NC(=O)CN1CCc2ccc(N3CCNCC3)cc2C1=O [(S)-4-Hydroxy-3-[2-(1-oxo-7-piperazin-1-yl-3,4-dihydro-1H-isoquinolin-2-yl)-acetylamino]-butyric acid]"
14,8,"O=C(O)C[C@@H](CO)NC(=O)c1ccc2c(c1)C(=O)N(CCC1CCNCC1)C2 [(S)-4-Hydroxy-3-{[3-oxo-2-(2-piperidin-4-yl-ethyl)-2,3-dihydro-1H-isoindole-5-carbonyl]-amino}-butyric acid]"
